Assay [1] has as its target T1, GPIIb/IIIa (Homo sapiens, UniProt P05106+P08514). Kind of assay: In vitro solid phase purified glycoprotein IIb/IIIa binding assay (fibrinogen binding). The conditions noted are these: for inhibition at 50 µM: read-out: Fibrinogen Binding % Inh. (50 μM). Here is the method: In Vito Solid Phase Purified Glycoprotein IIB/IIA Binding Assay
The plate was covered and incubated overnight at 4° C. The GPIIb/IIa solution was discarded and 150 μl of 5% BSA was added and incubated at RT for 1-3 h. The plate was washed extensively with modified Tyrodes buffer. Biotinylated fibrinogen (25 μl/well) at 2×final concentration was added to the wells that contain the test compounds (25 μl/well). The plate was covered and incubated at RT for 2-4 h. Twenty minutes prior to incubation completion, one drop of Reagent A (Vecta Stain ABC Horse Radish Peroxidase kit, Vector Laboratories, Inc.) and one drop Reagent B were added with mixing to 5 mL modified Tyrodes buffer mix and let stand. The ligand solution was discarded and the plate washed (5×200 μl/well) with modified Tyrodes buffer. Vecta Stain HRP-Biotin-Avidin reagent (50 μl/well, as prepared above) was added and incubated at RT for 15 min. The Vecta Stain solution was discarded and the wells washed (5×200 μl/well) with modified Tyrodes buffer. Developing buffer (10 mL of 50 mM citrate/phosphate buffer @ pH 5.3, 6 mg o-phenylenediamine, 6 μl 30% H2 O2; 50 μl/well) was added and incubated at RT for 3-5 min, and then 2N H2 SO4 (50 μl/well) was added. The absorbance was read at 490 nm.

For assay [2], the system named is gel-filtered platelets. Kind of assay: In vitro inhibition of thrombin-induced gel-filtered platelet aggregation. It counts as cell-based. The conditions noted are these: Homo sapiens; for inhibition at 50 µM: read-out: Platelet Aggregation % Inh. (50 μM). Here is the method:
In Vitro Inhibition of Thrombin-Induced Gel-Filtered Platelet Aggression Assay
The percentage of platelet aggregation is calculated as an increase in light transmission of compound-treated platelet concentrate vs. control-treated platelet concentrate. Human blood was obtained from drug free, normal donors into tubes containing […] sodium citrate. Platelet rich plasma (PRP) was collected by centrifugation of whole blood at 200×g for 10 min at 25° C. The PRP (5 mL) was gel filtered through Sepharose 2B (bed volume 50 mL), and the platelet count was adjusted to 2×10^7 platelets per sample. The following constituents were added to a siliconized cuvette: concentrated platelet filtrate and Tyrode's buffer (0.14M NaCl, 0.0027M KCl, 0.012M NaHCO3,0.76 mM Na2 HPO4, 0.0055M glucose, 2 mg/mL BSA and 5.0 mM HEPES @ pH 7.4) in an amount equal to 350 μl, 50 μl of 20 mM calcium and 50 μl of the test compound. Aggregation was monitored in a BIODATA aggregometer for the 3 min following the addition of agonist (thrombin 50 μl of 1 unit/mL).

Assay [3] deals with ADP-induced ex vivo platelet aggregation. Kind of assay: Ex vivo dog study: duration of >50% inhibition of ADP-induced ex vivo platelet aggregation. It counts as in vivo. The conditions noted are these: for Intravenous Dosing Duration (of >50% inhibition of ADP-induced ex vivo platelet aggregation): 0.1 mpk; for Oral Dosing Duration (of >50% inhibition of ADP-induced ex vivo platelet aggregation): 1 mpk. Here is the method: Adult mongrel dogs (8-13 kg) were anesthetized with sodium pentobarbital (35 mg/kg, i.v.) and artificially respired. Arterial blood pressure and heart rate were measured using a Millar catheter-tip pressure transducer inserted in a femoral artery. Another Millar transducer was placed in the left ventricle (LV) via a carotid artery to measure LV end diastolic pressure and indices of myocardial contractility. A lead II electrocardiogram was recorded from limb electrodes. Catheters were placed in a femoral artery and vein to sample blood and infuse drugs, respectively. Responses were continuously monitored using a Modular Instruments data acquisition system.
Arterial blood samples (5-9 ml) were withdrawn into tubes containing 3.8% sodium citrate to prepare platelet rich plasma (PRP) and to determine effects on coagulation parameters: prothrombin time (PT) and activated partial thromboplastin time (APTT). Separate blood samples (1.5 ml) were withdrawn in EDTA to determine hematocrit and cell counts (platelets, RBC's and white cells). Template bleeding times were obtained from the buccal surface using a symplate incision devise and Whatman filter paper.
Aggregation of PRP was performed using a BioData aggregometer. Aggregation of whole blood used a Chronolog impedance aggregometer. PT and APTT were determined on either a BioData or ACL 3000+ coagulation analyzer. Cells were counted with a Sysmex K-1000.
Compounds were solubilized in a small volume of dimethylformamide (DMF) and diluted with saline to a final concentration of 10% DMF. Compounds were administered by the intravenous route with a Harvard infusion pump. Doses was administered over a 15 min interval at a constant rate of 0.33 ml/min. Data were obtained after each dose and in 30 min intervals following the end of drug administration. Oral doses were administered as aqueous solutions via syringe.

For assay [4], the system named is in vitro thrombin-induced platelet aggregation. The conditions noted are these: L. Alig, J. Med. Chem. 1992, 35, 4393; read-out: IC50 against in vitro thrombin-induced platelet aggregation; cited from earlier work.
Assay [5] addresses T1, GPIIb/IIIa. The conditions noted are these: background statement; cited from earlier work.

The values below come from US6303625A, “Triazolopyridines for the treatment of thrombosis disorders” (Ortho-McNeil Pharmaceutical, Inc., priority 1999, dated 2001).

No end group written: not given here. Some results are limits rather than exact numbers.

As a reminder, the IC50 is the concentration at which inhibition is half-maximal. As for `O=C(N[C@@H](CNC(=O)C1CCCn2c(/C=C/C3CCNCC3)nnc21)C(=O)O)OCc1ccccc1` (stereo partly drawn) [Compound 5, β-[[[5,6,7,8-Tetrahydro-3-[2-(4-pipieridinyl)E-ethylene]-1,2,4-triazolo[4,3-a]pyridin-8-yl]carbonyl]amino]-αS-benzyloxycarbonylamino-propanoic acid], in assay [1], the IC50 came out at 0.1 nM and the inhibition at 50 µM was determined as 100%. Besides, in assay [2], the IC50 stood at 23 nM and the inhibition at 50 µM was found to be 100%. Moreover, in assay [3], the “Intravenous Dosing Duration (of >50% inhibition of ADP-induced ex vivo platelet aggregation)” value amounted to 120 min and the “Oral Dosing Duration (of >50% inhibition of ADP-induced ex vivo platelet aggregation)” value is given as 360 min.
In the case of `CC1(C(=O)NC[C@H](NC(=O)OCc2ccccc2)C(=O)O)CCCn2c(CCC3CCNCC3)nnc21` (stereo partly drawn) [Compound 8, β-[[[5,6,7,8-Tetrahydro-8-methyl-3-[2-(4-piperidinyl)ethyl]-1,2,4-triazolo[4,3-a]pyridin-8-yl]carbonyl]amino]-αS-benzyloxycarbonylamino-protanoic acid], in assay [1], the IC50 was determined as 18.1 nM and the inhibition at 50 µM worked out at 100%. For the same molecule, in assay [2], inhibition was half-maximal at 2100 nM (IC50) and the inhibition at 50 µM came out at 100%. Also, the “Oral Dosing Duration (of >50% inhibition of ADP-induced ex vivo platelet aggregation)” value in assay [3] was less than 30 min.
Regarding `O=C(O)C[C@H](NC(=O)C1CCCn2c(/C=C/C3CCNCC3)nnc21)c1cccnc1` (stereo partly drawn) [Compound 12, β-[[[5,6,7,8-Tetrahydro-3-[2-(4-piperidinyl)E-ethylene]-1,2,4-triazolo[4,3-a]pyridin-8-yl]carbonyl]amino]-βS-3-pyridylpropanoic acid], in assay [1], the IC50 is 0.14 nM and the inhibition at 50 µM came to 100%. Moreover, in assay [2], half-maximal inhibition (IC50) was put at 30 nM and the inhibition at 50 µM turned out to be 100%. Besides, in assay [3], the “Intravenous Dosing Duration (of >50% inhibition of ADP-induced ex vivo platelet aggregation)” value is on record as 150 min and the “Oral Dosing Duration (of >50% inhibition of ADP-induced ex vivo platelet aggregation)” value is 360 min.
Consider `CN(CC(=O)c1ccc(OCC(=O)O)c(OCC(=O)O)c1)C(=O)c1ccc(C(=N)N)cc1` [Ro-438857], for which, in assay [4], the IC50 is 94 nM.
Regarding Arg-Gly-Asp, the “inhibition of fibrinogen binding to GPIIb/IIIa” value in assay [5] is recorded as “shown to inhibit fibrinogen binding to GPIIb/IIIa”.
Consider “HHLGGAKQAGDV [gamma-chain peptide region of fibrinogen (γ400-411)]”, for which the “inhibition of fibrinogen binding to GPIIb/IIIa” value in assay [5] is on record as “shown to inhibit fibrinogen binding to GPIIb/IIIa”.
